This note sets out measurements from ChEMBL document CHEMBL1201862, “PubChem BioAssay data set” (2004).

Active and inactive are the calls of the source.

Experiment [1] deals with T1, Caspase-3 (Homo sapiens, UniProt P42574).
T1 sequence (P42574 whole entry): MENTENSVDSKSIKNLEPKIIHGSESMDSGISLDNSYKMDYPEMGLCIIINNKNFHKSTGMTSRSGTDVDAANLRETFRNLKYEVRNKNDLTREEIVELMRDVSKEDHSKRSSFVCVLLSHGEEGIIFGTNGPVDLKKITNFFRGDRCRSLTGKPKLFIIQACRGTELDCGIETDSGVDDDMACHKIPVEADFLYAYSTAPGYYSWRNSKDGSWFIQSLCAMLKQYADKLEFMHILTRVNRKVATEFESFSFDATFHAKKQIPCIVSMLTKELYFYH
The class given is functional.

The target of experiment [2] is T2, Sentrin-specific protease 8 (Homo sapiens, UniProt Q96LD8).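 Further: luminescence read-out of SENP8 inhibition, dose-response confirmation following an ultra-high-throughput screen.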
T2 sequence (Q96LD8 whole entry): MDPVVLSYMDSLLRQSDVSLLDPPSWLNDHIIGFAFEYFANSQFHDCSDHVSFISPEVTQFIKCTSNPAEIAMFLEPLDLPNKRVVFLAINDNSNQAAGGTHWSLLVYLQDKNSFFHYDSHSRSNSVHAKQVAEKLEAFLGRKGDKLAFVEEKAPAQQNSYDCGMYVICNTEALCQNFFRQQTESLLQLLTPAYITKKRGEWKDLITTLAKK
The class given is functional.

The target in experiment [3] is T3, Sentrin-specific protease 6 (Homo sapiens, UniProt Q9GZR1).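 Further: Luminescence-based dose-response confirmatory assay of SENP6 inhibition, following up an ultra-high-throughput screen.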
T3 sequence (Q9GZR1 whole entry): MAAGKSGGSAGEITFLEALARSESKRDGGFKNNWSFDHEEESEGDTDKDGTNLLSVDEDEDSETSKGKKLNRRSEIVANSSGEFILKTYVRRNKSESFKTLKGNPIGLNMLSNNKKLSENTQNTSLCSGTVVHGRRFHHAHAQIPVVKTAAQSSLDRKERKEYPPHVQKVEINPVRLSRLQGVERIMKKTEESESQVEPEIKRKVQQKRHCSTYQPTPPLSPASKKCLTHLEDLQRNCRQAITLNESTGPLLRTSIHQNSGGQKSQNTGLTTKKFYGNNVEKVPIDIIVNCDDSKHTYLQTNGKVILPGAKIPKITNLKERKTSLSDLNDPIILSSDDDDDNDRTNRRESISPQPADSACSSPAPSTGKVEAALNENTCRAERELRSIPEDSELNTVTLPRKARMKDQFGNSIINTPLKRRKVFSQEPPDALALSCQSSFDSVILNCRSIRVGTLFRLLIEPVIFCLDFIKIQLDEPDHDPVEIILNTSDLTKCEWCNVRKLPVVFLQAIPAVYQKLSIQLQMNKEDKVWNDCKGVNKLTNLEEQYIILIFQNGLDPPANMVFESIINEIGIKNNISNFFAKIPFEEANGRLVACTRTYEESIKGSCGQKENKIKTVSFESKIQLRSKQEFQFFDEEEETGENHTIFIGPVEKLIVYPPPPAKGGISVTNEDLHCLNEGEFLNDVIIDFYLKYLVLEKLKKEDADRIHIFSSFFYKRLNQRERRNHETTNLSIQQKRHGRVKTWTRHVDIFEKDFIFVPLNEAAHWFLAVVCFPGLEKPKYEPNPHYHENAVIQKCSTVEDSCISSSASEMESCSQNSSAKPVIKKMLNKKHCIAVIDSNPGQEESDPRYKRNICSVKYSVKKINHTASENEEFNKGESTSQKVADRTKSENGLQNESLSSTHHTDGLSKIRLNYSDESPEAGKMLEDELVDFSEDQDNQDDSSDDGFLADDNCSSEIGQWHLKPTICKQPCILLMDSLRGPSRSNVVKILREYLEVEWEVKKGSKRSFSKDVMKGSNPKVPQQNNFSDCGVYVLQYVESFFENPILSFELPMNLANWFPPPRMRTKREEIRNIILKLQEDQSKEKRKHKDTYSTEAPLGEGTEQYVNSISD
The class given is functional.

Experiment [4] has as its target T4, Sentrin-specific protease 7 (Homo sapiens, UniProt Q9BQF6).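 Further: Luminescence-based dose-response confirmation of ultra-high-throughput screening hits, measuring inhibition of SENP7.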
T4 sequence (Q9BQF6 whole entry): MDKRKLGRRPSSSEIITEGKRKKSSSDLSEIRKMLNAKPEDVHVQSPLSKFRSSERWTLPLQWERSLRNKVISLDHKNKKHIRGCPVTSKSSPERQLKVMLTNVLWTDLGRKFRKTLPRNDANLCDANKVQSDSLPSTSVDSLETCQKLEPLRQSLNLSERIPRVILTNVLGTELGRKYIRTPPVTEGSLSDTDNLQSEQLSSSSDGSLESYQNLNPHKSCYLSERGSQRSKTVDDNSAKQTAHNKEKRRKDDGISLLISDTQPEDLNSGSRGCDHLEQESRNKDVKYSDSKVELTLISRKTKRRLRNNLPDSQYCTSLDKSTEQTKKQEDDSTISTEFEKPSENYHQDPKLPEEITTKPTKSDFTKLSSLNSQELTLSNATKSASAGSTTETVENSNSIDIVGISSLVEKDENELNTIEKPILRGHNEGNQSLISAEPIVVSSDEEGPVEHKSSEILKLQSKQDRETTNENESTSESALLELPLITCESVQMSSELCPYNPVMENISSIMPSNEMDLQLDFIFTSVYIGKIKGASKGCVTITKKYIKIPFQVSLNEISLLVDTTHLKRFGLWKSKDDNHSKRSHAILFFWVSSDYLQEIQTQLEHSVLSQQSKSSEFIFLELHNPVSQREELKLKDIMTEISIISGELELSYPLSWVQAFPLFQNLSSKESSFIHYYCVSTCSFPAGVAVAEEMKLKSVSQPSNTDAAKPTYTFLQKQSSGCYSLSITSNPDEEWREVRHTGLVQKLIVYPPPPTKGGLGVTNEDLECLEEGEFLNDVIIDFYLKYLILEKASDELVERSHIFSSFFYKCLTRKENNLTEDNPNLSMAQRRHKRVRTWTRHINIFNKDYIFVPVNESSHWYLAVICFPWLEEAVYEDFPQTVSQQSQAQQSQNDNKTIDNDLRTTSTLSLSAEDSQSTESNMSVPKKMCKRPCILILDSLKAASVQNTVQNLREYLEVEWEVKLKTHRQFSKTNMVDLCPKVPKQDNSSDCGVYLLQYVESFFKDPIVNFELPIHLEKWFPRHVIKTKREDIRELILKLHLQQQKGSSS
The class given is functional.

Experiment [5] is described as follows: HEp-2 cell cytotoxicity, dose response, cytotoxicity control for RSV inhibitor project, HTS (AID 2410). The class given is functional. The following applies: human respiratory syncytial virus.
Experiment [6] addresses T5, Short transient receptor potential channel 4 (Mus musculus, UniProt Q9QUQ5).
T5 sequence (Q9QUQ5 whole entry): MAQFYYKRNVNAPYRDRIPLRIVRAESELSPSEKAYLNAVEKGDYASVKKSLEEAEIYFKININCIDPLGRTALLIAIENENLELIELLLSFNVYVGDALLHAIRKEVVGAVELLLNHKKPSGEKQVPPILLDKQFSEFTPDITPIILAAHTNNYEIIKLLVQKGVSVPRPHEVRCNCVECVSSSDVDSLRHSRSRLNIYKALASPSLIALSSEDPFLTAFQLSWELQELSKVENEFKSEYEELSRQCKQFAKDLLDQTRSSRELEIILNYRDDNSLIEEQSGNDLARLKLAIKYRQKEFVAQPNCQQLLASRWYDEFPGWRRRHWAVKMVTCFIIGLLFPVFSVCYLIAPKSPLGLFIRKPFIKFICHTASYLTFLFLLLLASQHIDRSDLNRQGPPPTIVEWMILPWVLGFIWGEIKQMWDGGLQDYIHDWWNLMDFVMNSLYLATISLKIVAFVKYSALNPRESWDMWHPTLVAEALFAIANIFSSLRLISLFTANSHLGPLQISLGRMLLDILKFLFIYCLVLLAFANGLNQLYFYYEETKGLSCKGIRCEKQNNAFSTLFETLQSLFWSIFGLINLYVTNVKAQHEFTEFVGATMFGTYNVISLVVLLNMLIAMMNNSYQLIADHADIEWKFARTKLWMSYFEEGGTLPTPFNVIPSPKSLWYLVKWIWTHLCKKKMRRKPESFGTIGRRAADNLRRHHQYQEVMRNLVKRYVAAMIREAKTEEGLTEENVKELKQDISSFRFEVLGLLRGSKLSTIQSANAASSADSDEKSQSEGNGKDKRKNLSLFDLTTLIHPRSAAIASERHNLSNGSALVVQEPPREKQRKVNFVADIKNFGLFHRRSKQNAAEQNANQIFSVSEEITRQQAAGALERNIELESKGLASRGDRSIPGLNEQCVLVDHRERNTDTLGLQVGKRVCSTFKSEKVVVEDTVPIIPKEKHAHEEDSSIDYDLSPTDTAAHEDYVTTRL
The experiment can be described thus: mouse TRPC4 channel activators, dose response, cell-based, HEK293 TRPC4/mu-opioid, Fluo-4 calcium (AID 434937). The class given is functional.

Experiment [7] is described as follows: inhibitors of firefly luciferase expression or activity, dose response, H4 neuroglioma cells, luminescence (AID 1990). The class given is functional, cell-based.
The nature of experiment [8]: inhibitors of SNCA 5'UTR-driven reporter translation, confirmation, H4 neuroglioma cells, luminescence (AID 1988). The class given is functional, cell-based.
Experiment [9] is described as follows: Luminescence Cell-Based Dose Response HTS to Identify Inhibitors of 5'UTR Stem-Loop Driven Prion Protein mRNA Translation in H4 Neuroglioblastoma Cells. [Related pubchem assays: 1827 (Project Summary), 1813 (Primary HTS)]. The class given is functional.
Experiment [10] is described as follows: inhibitors of intracellular T. cruzi replication, confirmation, NIH3T3 host cells, beta-gal luminescence (AID 2044).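 Further: intracellular parasites grown in NIH/3T3 mouse fibroblasts as host cells; luminescent beta-galactosidase reporter signal from transgenic T. cruzi replicating inside host cells; inhibitors lower the luminescence signal.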 The class given is functional, cell-based.
In experiment [11] the target is T6, Polyadenylate-binding protein 1 (Homo sapiens, UniProt P11940). Put plainly: PABP1 MLLE–PAM2 binding inhibitor potency, dose response, biochemical, fluorescence polarization, FITC-PAM2 peptide (AID 602259). The class given is functional. To be noted: read-out: IC50_Mean.
T6 sequence (P11940 whole entry): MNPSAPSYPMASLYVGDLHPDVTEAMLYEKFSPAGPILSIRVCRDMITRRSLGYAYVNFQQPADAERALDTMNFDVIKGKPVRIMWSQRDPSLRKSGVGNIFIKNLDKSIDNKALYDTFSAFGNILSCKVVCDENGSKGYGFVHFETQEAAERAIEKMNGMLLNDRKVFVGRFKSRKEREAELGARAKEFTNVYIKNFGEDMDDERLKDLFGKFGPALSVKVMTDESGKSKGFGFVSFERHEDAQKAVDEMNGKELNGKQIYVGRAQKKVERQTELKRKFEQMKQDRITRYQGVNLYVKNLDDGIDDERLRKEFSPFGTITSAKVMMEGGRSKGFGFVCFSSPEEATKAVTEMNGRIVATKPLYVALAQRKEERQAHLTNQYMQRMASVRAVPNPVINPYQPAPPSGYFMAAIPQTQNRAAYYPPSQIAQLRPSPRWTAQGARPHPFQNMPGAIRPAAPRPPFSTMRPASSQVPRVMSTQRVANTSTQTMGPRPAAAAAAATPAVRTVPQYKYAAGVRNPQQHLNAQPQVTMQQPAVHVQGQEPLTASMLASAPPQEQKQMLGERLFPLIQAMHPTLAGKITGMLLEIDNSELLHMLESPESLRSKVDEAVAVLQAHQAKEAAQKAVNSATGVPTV
Experiment [12] in a line: cytotoxicity toward NIH3T3 fibroblasts, dose response, counter-screen, cell-based, ATP luminescence, mouse fibroblasts (AID 2010).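 Further: cells exposed to compound for about 90 hours before reading.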 The class given is functional. Background: A counterscreen serves to expose hits that act by an unwanted route or on another target.
Experiment [13] concerns the target T6, Polyadenylate-binding protein 1. The experiment can be described thus: PABP1 MLLE–PAM2 interaction inhibitors, dose response, miRNA deadenylation inhibitor project, biochemical, fluorescence polarization, Cy5-PAM2 peptide, secondary (AID 602260). The class given is functional. To be noted: read-out: IC50_Mean. In general terms: In fluorescence polarisation assays a small probe gives low polarisation when free and higher when bound to something large.

A short description of experiment [14]: HepG2 cell cytotoxicity, dose response, cytotoxicity control for Shn3 inhibitor project, CellTiter-Glo, cherry-picked (AID 624134). The class given is functional, cell-based.
Experiment [15] is described as follows: control 3'UTR Renilla luciferase suppression, dose response, counter-screen for Shn3 inhibitor project, cell-based, Clone20-Shn3RL, cherry-picked (AID 624133). The class given is functional.
The nature of experiment [16]: Shn3 3'UTR reporter inhibitors, dose response, cell-based, Clone20 osteoblasts, firefly luciferase, cherry-picked (AID 624132).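 Further: firefly luciferase luminescence from reporter carrying the Shn3 3'UTR in osteoblasts.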 The class given is functional.
The subject of experiment [17] is INS1. Put plainly: beta cell apoptosis inhibitors, cytokine rescue, dose response, luminescence, retest (AID 449756).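 Further: cell death triggered by IL-1 beta plus TNF-alpha plus IFN-gamma mixture; protective hits raise ATP signal compared with cytokine alone wells.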 The class given is functional, cell-based. To be noted: Rattus norvegicus.
The nature of experiment [18]: Luminescence Cell-Based Dose Retest to Confirm Inhibitors of Cancer Stem Cells. [Related pubchem assays (depositor defined):AID2717, AID2721]. The class given is functional. The following applies: Homo sapiens.

In the case of `N=c1oc2ccccc2cc1C(=O)Nc1ccccc1`, the IC50 was 13.6 µM (active) in experiment [1], > 100 µM (inactive) in experiment [2], 15.6 µM (active) in experiment [3] and 11.4 µM (active) in experiment [4].
The term CC50 denotes the concentration giving 50% cytotoxicity. Take `O=C(Oc1ccc2ccccc2c1Cl)N1CCCCCC1`: the IC50 in experiment [1] is 17.4 µM (active); in [2], 15.4 µM (active); in experiment [3] it was 10.6 µM (active); in experiment [4], 7.15 µM (active). Besides, the CC50 in experiment [5] is 27.6 µM (active).
As to `Cc1ccc(Oc2cc(-n3nc(C)cc3C)ncn2)cc1`, the IC50 in [1] was 23.5 µM (active); in [2] it was 54.7 µM (active); in [3], 35.7 µM (active); in experiment [4] it was 9.25 µM (active).
A word on the EC50: it is the concentration at which the effect is half-maximal. For the compound `Cc1csc2c(N3CCN(C(S)=Nc4ccc(F)cc4F)CC3)ncnc12`, the EC50 in [6] was 1.88 µM (active).
Consider `CN(C)CCCN(C(=O)c1ccc(S(=O)(=O)N2CCCc3ccccc32)cc1)c1nc2ccc(F)cc2s1`, for which the EC50 is 12.6 µM (active) in experiment [7], > 120 µM (not active) in experiment [8], > 120 µM (not active) in experiment [9] and 2.37 µM (active) in experiment [6].
Turning to `Sc1nnc2c3ccccc3n(CCc3ccccc3)c2n1`, the EC50 in experiment [10] was 2.69 µM (active); in experiment [12] it was > 60 µM (not active). For the same compound, the IC50 in [11] and in experiment [13] was > 66 µM (inactive) each time. Moreover, in [5], the CC50 was 23.8 µM (active).
As usually defined, the AC50 is the concentration at which the activity in the assay is half-maximal. As to `COc1ccccc1/C=C/CN1CCC(n2nccc2NC(=O)CCc2ccccc2)CC1`, the AC50 is 42.3 µM (active) in [14], 4.23 µM (active) in experiment [15], 1.91 µM (active) in experiment [16] and 5.75 µM (active) in [17].
With `COc1cc(/C=C/C(=O)Nc2nnc(C(C)(C)C)s2)cc(OC)c1OC`, the IC50 in experiment [11] and in experiment [13] was > 66 µM (inactive) each time.
Turning to `CC(=O)c1cc(-c2ccccc2)[nH]c1N1CCOCC1`, the IC50 in experiment [11] and in experiment [13] was > 66 µM (inactive) each time.
On to `Cc1ccc(C)c(S(=O)(=O)N2CCN(c3ncnc4sccc34)CC2)c1`, for which the AC50 in [14] was 2.55 µM (active); in experiment [18] it was 1.25 µM (active); in experiment [15], 2.38 µM (active); in experiment [16], 0.631 µM (active); in experiment [17] it was 3.41 µM (active).
In the case of `CN(CC(=O)Nc1ccccc1Cl)C(=O)c1cccc(S(=O)(=O)N2CCN(Cc3ccccc3)CC2)c1`, the AC50 in experiment [14] is 50.5 µM (active); in experiment [15], 4.83 µM (active); in [16], 3.47 µM (active).
As to `COc1ccc(Cc2c(C(C)(C)C)nc3c(C)cc(Br)cn23)c(C)c1`, the IC50 in experiment [11] is 52.7 µM (inactive); in experiment [13], > 66 µM (inactive).
